Consider 3 compounds from patent US10736973B2, “Glucose analogs for diagnosis states” (TECHNOLOGY INNOVATION MOMENTUM FUND (ISRAEL) LIMITED …, priority 2014, dated 2020).

For series [1] the following is noted: rat, in vivo; cited from earlier work.
Series [2] deals with DA3 tumors. Kind of series: CEST NMR of MCW extracts of tumors from treated mice. The series is classed as in vivo, BALB/C mice. Conditions: 25 min after 1.5 g/kg; compared with D-glu; B1=2.5 μT, pH=7.0, T=25° C., 11.7 T. The procedure:
(§1) • Chemicals and Media: 3OMG, D-glucose, D-glucose 6 phosphate, 2-DG and 2-DG-6P sodium salt were obtained from Sigma-Aldrich, Israel; FDG was obtained from Carbosynth Limited, UK. The glucose analogs were prepared at concentration of 10 mM (pH=7.5), containing 10% D2O for NMR field locking. • Cells: DA3-D1-DMBA-3 is a cell line derived from a poorly differentiated mammary adenocarcinoma induced in BALB/C mice by dimethylbenzanthracene. • Animals: BALB/C female mice were purchased and kept in the breeding facility of the Sackler School of Medicine, Tel Aviv University. To induce orthotropic tumors in mice, DA3 cells were injected into the lower left mammary gland of 8 week old (17-22 gr) female BALB/c mice (5×10^5 cells in 100 μL saline). […] Each sample was dissolved in 0.5 ml D2O (99.98%, Biolab, Israel), adjusted at pH=6.5-7 and inserted into 5 mm tube for NMR. • NMR Spectroscopy: 1H NMR Spectra were recorded at 500 MHz in 5 mm tubes on a Bruker 500 MHz DRX with the following parameters: spectral width 7500 Hz, pulse width 5.5 us (corresponding to a 45° flip angle); data size 16 K; relaxation delay 10 s; number of scans=16. […] The chemical exchange contrast was measured by magnetization transfer asymmetry, MTRasym. […]

Series [3] deals with DA3 mammary tumors. Put plainly: In vivo CEST MRI of DA3 mammary tumor bearing mice. Set-up: species or system BALB/c mice. On the procedure:
CEST MRI experiments were performed on a Bruker 7T Biospec scanner with 30 cm bore size on implanted xenograph mammary tumors of mice before and following the injection of the glucose analog 3OMG. DA3 tumor bearing mice that were allowed to grow for 10-14 days, with an average tumor volume of 5 mm^3 were scanned. The mice were anesthetized using isoflurane (1-2%) and scanned with surface coil. Their temperature was monitored and maintained at 37° C. We performed i.p injections of the contrast medium, 3OMG (in saline, pH=7.4).
Images were generated as follows: a series of gradient-echo images were collected from a single 1 mm axial slice of (acquisition matrix 128×64, field of view of 40×40 mm2) after 1.2 s presaturation pulse of 2.5 μT (106 Hz) at ±1.2 ppm from the water signal. For the MTRasym plot, the mean intensities were used within the selected region of interest (ROI) within the tumor.
Having determined in vitro that 3OMG concentrations of only a few millimolar could be detected with CEST method (FIGS. 1-4), the determination of the potential use of 3OMG CEST MRI to image mammary tumors, in vivo, was carried out. Thus performed 3OMG CEST MRI experiments were carried out on mice bearing DA3 tumors injected with 3OMG glucose analog. Tumor anatomy was initially imaged using T2 weighted spin echo sequence (RARE).

For series [4] the following is noted: in vivo; cited from earlier work.
Series [5] relates to hexokinase. The note with it: cited from earlier work.
The nature of series [6]: CEST NMR of 10 mM glucose analog solutions (MTRasym). The series is classed as physicochemical. Conditions: pH 6.3-7.8 tested, 1.2 ppm, T=25° C., 11.7 T. The procedure:
as §1

For the compound `O=C[C@H](F)[C@@H](O)[C@H](O)[C@H](O)CO` [FDG, 2-fluoro-deoxy-D-glucose], the Toxicity result in series [1] is “toxic at high concentrations”.
Consider `CO[C@@H]([C@H](O)[C@H](O)CO)[C@@H](O)C=O` [3OMG, 3-O-methylglucose], for which the “CEST effect for the peak at 1.2 ppm in combined tumor extracts” value in series [2] is on record as “significantly high”. For the same compound, the “CEST enhancement (% CEST increase) in the tumor” value in series [3] (i.p. injection 1.5 g/kg, 7T, ±1.2 ppm, 2.5 μT) is reported as “about 20%”. In series [3] (injection 1.5 g/kg), the “Time after which the enhanced tumor CEST MRI image started to decay” value was over 20 min. Also, the “CEST effect in other organs (apart from the urinary bladder)” value in series [3] (injection 1.5 g/kg, throughout the MRI scans session) was “did not show any significant CEST effect”. In addition, in series [4], the Excretion entry is reported as “entirely excreted by the kidneys”. Also, in series [5], the Phosphorylation entry is “does not undergo phosphorylation” and the Substrate for hexokinase entry was “does not serve as substrate”. Further, the “pH at which the CEST effect has its maximum” value in series [6] is listed as about 7.5.
Consider `O=CC[C@@H](O)[C@H](O)[C@H](O)CO` [2-DG, 2-deoxy-D-glucose], for which, in series [1], the Toxic high concentration was 3 g/kg and the Toxicity entry is “toxic at high concentrations”.
